Laboratory results published in ChEMBL document CHEMBL1201862, “PubChem BioAssay data set” (2004).
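All cell lines were grown in 96-well plates and treated with compound for 48 hours. GI50: concentration for 50% inhibition of growth.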 Activity calls are given as the source filed them. Rule as the data show it: active = GI50 up to about 1.1 µM and inactive = higher.

Tests used:
Test in all cases: DTP human tumour cell line panel, 48 h
RPMI-8226 = tested on: RPMI-8226
SK-MEL-5 = tested on: SK-MEL-5
UO-31 = tested on: UO-31
UACC-257 = tested on: UACC-257
HL-60 = tested on: HL-60
LOX IMVI = tested on: LOX IMVI
LXFL 529 = tested on: LXFL 529
NCI-H522 = tested on: NCI-H522
SK-OV-3 = tested on: SK-OV-3
KM-20L2 = tested on: KM-20L2
OVCAR-4 = tested on: OVCAR-4
SNB-19 = tested on: SNB-19
KM12 = tested on: KM12
HCT-15 = tested on: HCT-15
NCI-H460 = tested on: NCI-H460
Malme-3M = tested on: Malme-3M
A549 = tested on: A549
HOP-18 = tested on: HOP-18
SF-268 = tested on: SF-268
M14 = tested on: M14
COLO 205 = tested on: COLO 205
SNB-75 = tested on: SNB-75
DMS-273 = tested on: DMS-273
SF-295 = tested on: SF-295
SR = tested on: SR
MOLT-4 = tested on: MOLT-4
HCC 2998 = tested on: HCC 2998
TK-10 = tested on: TK-10
U-251 = tested on: U-251
OVCAR-3 = tested on: OVCAR-3
EKVX = tested on: EKVX
SW-620 = tested on: SW-620
UACC-62 = tested on: UACC-62
SF-539 = tested on: SF-539
XF498 = tested on: XF498
OVCAR-8 = tested on: OVCAR-8
HOP-92 = tested on: HOP-92
DLD-1 = tested on: DLD-1
ACHN = tested on: ACHN
K562 = tested on: K562
NCI-H226 = tested on: NCI-H226
SK-MEL-28 = tested on: SK-MEL-28
SNB-78 = tested on: SNB-78
CCRF-CEM = tested on: CCRF-CEM
SK-MEL-2 = tested on: SK-MEL-2
DMS-114 = tested on: DMS-114
HOP-62 = tested on: HOP-62
SN12C = tested on: SN12C
786-0 = tested on: 786-0
NCI-H23 = tested on: NCI-H23
HCT-116 = tested on: HCT-116
M19-MEL = tested on: M19-MEL
A498 = tested on: A498
IGROV-1 = tested on: IGROV-1
CAKI-1 = tested on: CAKI-1
HT-29 = tested on: HT-29
OVCAR-5 = tested on: OVCAR-5
RXF 393 = tested on: RXF 393
RXF 631 = tested on: RXF 631

Measured: GI50

O=C(COc1ccc(Cl)cc1)N1N=C(c2ccc(Cl)cc2)CC1(O)c1ccccc1 (stereo not given)
13.1 µM: HCT-15
inactive: RPMI-8226 7.03 µM | SK-MEL-5 14.5 µM | UO-31 > 23.7 µM | UACC-257 15.8 µM | HL-60 6.5 µM | LOX IMVI 12.6 µM | LXFL 529 15 µM | NCI-H522 14.3 µM | SK-OV-3 19.5 µM | KM-20L2 15.4 µM | OVCAR-4 7.48 µM | SNB-19 20.3 µM | KM12 14.2 µM | NCI-H460 15.2 µM | Malme-3M 20.2 µM | A549 14.3 µM | HOP-18 39.2 µM | SF-268 > 43.9 µM | M14 18.1 µM | COLO 205 21 µM | SNB-75 29.9 µM | DMS-273 15.9 µM | SF-295 23.8 µM | SR 3.69 µM | MOLT-4 4.95 µM | HCC 2998 > 37.2 µM | TK-10 26.7 µM | U-251 16.7 µM | OVCAR-3 16.3 µM | EKVX 30 µM | SW-620 21.2 µM | UACC-62 15.9 µM | SF-539 24.8 µM | XF498 27.8 µM | OVCAR-8 15.2 µM | HOP-92 21.5 µM | DLD-1 13 µM | ACHN 9.04 µM | K562 9.73 µM | NCI-H226 22.3 µM | SK-MEL-28 18.2 µM | SNB-78 > 38.5 µM | CCRF-CEM 16.7 µM | SK-MEL-2 24.3 µM | DMS-114 18.4 µM | HOP-62 23.4 µM | SN12C 5 µM | 786-0 14.5 µM | NCI-H23 13.1 µM | HCT-116 12.6 µM | M19-MEL 24 µM | A498 13.5 µM | IGROV-1 18.5 µM | CAKI-1 20.9 µM | HT-29 12.9 µM | OVCAR-5 21.7 µM

COC(=O)CCC1CCc2c(OC)ccc(O)c2C1=O (stereo not given)
> 100 µM: HCT-15
inactive: RPMI-8226 > 100 µM | SK-MEL-5 > 100 µM | UO-31 55.8 µM | UACC-257 > 100 µM | HL-60 > 100 µM | LOX IMVI > 100 µM | LXFL 529 > 100 µM | NCI-H522 > 100 µM | SK-OV-3 > 100 µM | OVCAR-4 > 100 µM | SNB-19 > 100 µM | KM12 > 100 µM | NCI-H460 > 100 µM | Malme-3M > 100 µM | A549 > 100 µM | SF-268 > 100 µM | M14 > 100 µM | COLO 205 > 100 µM | SNB-75 66.4 µM | DMS-273 > 100 µM | SF-295 > 100 µM | SR > 100 µM | RXF 393 > 100 µM | MOLT-4 > 100 µM | HCC 2998 > 100 µM | TK-10 > 100 µM | U-251 > 100 µM | OVCAR-3 > 100 µM | EKVX > 100 µM | SW-620 > 100 µM | UACC-62 > 100 µM | SF-539 > 100 µM | OVCAR-8 > 100 µM | DLD-1 > 100 µM | ACHN > 100 µM | K562 > 100 µM | NCI-H226 28.7 µM | SK-MEL-28 > 100 µM | RXF 631 > 100 µM | SNB-78 > 100 µM | CCRF-CEM > 100 µM | SK-MEL-2 > 100 µM | HOP-62 > 100 µM | SN12C > 100 µM | 786-0 > 100 µM | NCI-H23 > 100 µM | HCT-116 > 100 µM | M19-MEL > 100 µM | A498 > 100 µM | IGROV-1 > 100 µM | HT-29 > 100 µM

CC(=O)OCC1OC(N2C(=O)/C(=N\NC(N)=S)c3ccc([N+](=O)[O-])cc32)C(OC(C)=O)C1OC(C)=O (stereo not given)
inactive: RPMI-8226 27.9 µM | SK-MEL-5 32 µM | UACC-257 37.4 µM | HL-60 16.6 µM | LOX IMVI 19.1 µM | LXFL 529 50 µM | NCI-H522 15 µM | SK-OV-3 > 100 µM | KM-20L2 31.5 µM | OVCAR-4 19 µM | SNB-19 62.5 µM | KM12 38.5 µM | NCI-H460 20.1 µM | Malme-3M 33.7 µM | A549 40.8 µM | HOP-18 > 100 µM | SF-268 30.8 µM | M14 70.5 µM | COLO 205 31 µM | SNB-75 18.6 µM | DMS-273 17.4 µM | SF-295 29.1 µM | SR 5.98 µM | RXF 393 20.2 µM | MOLT-4 15.3 µM | HCC 2998 26.4 µM | TK-10 > 100 µM | U-251 28.1 µM | OVCAR-3 26.4 µM | EKVX 36.6 µM | SW-620 36.9 µM | UACC-62 13.9 µM | SF-539 24.1 µM | XF498 29.9 µM | OVCAR-8 19.4 µM | HOP-92 43.4 µM | DLD-1 29.6 µM | ACHN 30.7 µM | K562 18.7 µM | NCI-H226 28.6 µM | SK-MEL-28 29.2 µM | SNB-78 33.3 µM | CCRF-CEM 12.9 µM | SK-MEL-2 20.7 µM | DMS-114 23.1 µM | HOP-62 31.3 µM | SN12C 36.1 µM | 786-0 19.8 µM | NCI-H23 16.4 µM | HCT-116 13.7 µM | M19-MEL 18.4 µM | IGROV-1 48.8 µM | CAKI-1 38.4 µM | HT-29 30 µM | OVCAR-5 61.2 µM
76 µM: HCT-15
